pIC50: −log10 of the molar value.
What follows are compounds tested against T1, Recombinant human Met (c-Met) (Homo sapiens, UniProt P08581) (assay: Inhibition of c-Met kinase activity using Transcreener FP assay). Details: Poly E4Y substrate, 28° C. 45 min, read-out: IC50, inhibition of c-Met kinase activity.
T1 construct: purchased Invitrogen PV3143
Format: biochemical
Protocol: Compound dilution: dilute test articles to 5 folds of the testing concentration using 20% DMSO.
The mixture is kept on ice until use;
Prepare ATP standard curve stock as following:
3. Enzymatic reaction: in 96-well reaction plate
Add 5 μL of test article or 5 μL of 20% DMSO or 5 μL of 500 mM EDTA;
Add 10 μL of Enzyme/Substrate stock;
Add 10 μL of ATP Diluent to begin the enzyme reaction and mix on plate shaker;
Add 5 μL of 20% DMSO, 10 μL of assay buffer and 10 μL of ATP standard curve stock into standard curve wells;
Gently shake at 28° C. for 45 min.
4. Stop reaction and detect ADP
Prepare Detection Mix: According to the procedures described in the Assay kit, Alexa633 tracer, ADP antibody and stop & detect buffer were added into H2O and mixed thoroughly. Prepare Tracer Only control: According to the procedures described in the Assay kit, ADP Alexa633 tracer and stop & detect buffer were added to H2O and mixed throughly.
Prepare No Tracer control: According to the procedures described in the Assay kit, the stop & detect buffer was diluted with H2O;
Add 25 μL of detection mix, Tracer Only control and No Tracer control into corresponding wells, respectively;
The reaction plate was gently shaken at 28° C. for 1 h;
Florescence polarization (FP) was measured on TECAN F500. Excitation wavelength: 610 nm, Emission wavelength: 670 nm.
Compound well [ADP] represents the ADP concentration of the compound well. Positive control well [ADP] represents the ADP concentration of the 20% DMSO well. Conversion of mP value to ADP concentration is based on the formula which is determined by standard curve.
IC50: calculated using XL-Fit 2.0 software.

T1 sequence (P08581 956-1390 limits assumed): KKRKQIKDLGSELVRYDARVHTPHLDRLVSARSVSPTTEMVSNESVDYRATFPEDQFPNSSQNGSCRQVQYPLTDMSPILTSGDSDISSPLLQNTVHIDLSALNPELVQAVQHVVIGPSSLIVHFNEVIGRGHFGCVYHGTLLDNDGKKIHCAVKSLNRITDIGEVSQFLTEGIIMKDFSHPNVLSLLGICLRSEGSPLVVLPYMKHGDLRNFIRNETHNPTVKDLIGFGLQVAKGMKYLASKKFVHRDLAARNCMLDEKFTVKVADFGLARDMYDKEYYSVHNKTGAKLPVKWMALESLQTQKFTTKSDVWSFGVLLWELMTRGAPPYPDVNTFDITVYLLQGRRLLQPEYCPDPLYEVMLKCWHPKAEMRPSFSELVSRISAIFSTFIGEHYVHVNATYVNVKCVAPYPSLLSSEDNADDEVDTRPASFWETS

`Cn1cc(-c2cnc3nnn(Cc4ccc5ncsc5c4)c3n2)cn1` [Compound 11] and `OCCn1cc(-c2cnc3nnn(Cc4ccc5ncsc5c4)c3n2)cn1` [Compound 12] fall in the same range of pIC50: 7.00 to 9.00 for the first, 7.00 to 9.00 for the second.

First: Clc1cccc(Nc2ccc3nnn(Cc4cc5cnccc5s4)c3n2)c1 [Compound 170]
Second: COc1cc(Nc2ccc3nnn(Cc4ccc5ncccc5c4)c3n2)ccn1 [Compound 179]
The pIC50 of the first is lower: 6.00 to 7.00 for the first, 7.00 to 9.00 for the second. The second is the more potent here.

`Cc1cnc(Nc2cnc3nnn(Cc4ccc5ncccc5c4)c3n2)s1` [Compound 176] and `Cc1cc(Nc2cnc3nnn(Cc4ccc5ncccc5c4)c3n2)n[nH]1` [Compound 191] fall in the same range of pIC50: 7.00 to 9.00 for the first, 7.00 to 9.00 for the second.

First: CC(=O)OCCn1cc(-c2ccc3nnn(Cc4ccc5ncccc5c4)c3n2)cn1 [Compound 98]
Second: CCCn1cc(-c2ccc3nnn(Cc4ccc5ncccc5c4)c3n2)cn1 [Compound 146]
The pIC50 of the first is lower: 6.00 to 7.00 for the first, 7.00 to 9.00 for the second. The second is the more potent here.

`CCOCc1cnc2ccc(Cn3nnc4ncc(-c5cnn(C)c5)nc43)cn12` [Compound 321] and `COCc1cnc2ccc(Cn3nnc4ncc(-c5cnn(C)c5)nc43)cn12` [Compound 308] fall in the same range of pIC50: 7.00 to 9.00 for the first, 7.00 to 9.00 for the second.

`c1cnc2ccc(Cn3nnc4ncc(Nc5ccnc(NC6CCOC6)c5)nc43)cc2c1` (stereo not shown) [Compound 222] and `OC1COCC1Nc1cc(Nc2cnc3nnn(Cc4ccc5ncccc5c4)c3n2)ccn1` (stereo not shown) [Compound 228] fall in the same range of pIC50: 7.00 to 9.00 for the first, 7.00 to 9.00 for the second.

`Brc1cnc2nnn(Cc3cc4[nH]ncc4s3)c2n1` [Compound 295] and `c1n[nH]cc1-c1cnc2nnn(Cc3cc4[nH]ncc4s3)c2n1` [Compound 44] fall in the same range of pIC50: 7.00 to 9.00 for the first, 7.00 to 9.00 for the second.

`CCCn1cc(-c2ccc3nnn(Cc4ccc5nccn5c4)c3n2)cn1` [Compound 140] and `CCn1cc(-c2ccc3nnn(Cc4ccc5nccn5c4)c3n2)cn1` [Compound 135] fall in the same range of pIC50: 7.00 to 9.00 for the first, 7.00 to 9.00 for the second.

First: Cc1cccc(Nc2cnc3nnn(Cc4ccc5ncccc5c4)c3n2)n1 [Compound 157]
Second: Cc1cccc(Nc2ccc3nnn(Cc4ccc5ncccc5c4)c3n2)n1 [Compound 181]
The pIC50 of the first is higher: 7.00 to 9.00 for the first, 6.00 to 7.00 for the second. The first is the more potent here.

`N#CCn1cc(-c2cnc3nnn(Cc4ccn5nccc5c4)c3n2)cn1` [Compound 301] and `N#CCn1cc(-c2cnc3nnn(Cc4ccc5nccn5c4)c3n2)cn1` [Compound 35] fall in the same range of pIC50: 7.00 to 9.00 for the first, 7.00 to 9.00 for the second.

`c1nc2ccc(Cn3nnc4ncc(-c5cnn(C6CNC6)c5)nc43)cn2n1` [Compound 286] and `c1nc2ccc(Cn3nnc4ncc(-c5cnn(C6CCOCC6)c5)nc43)cn2n1` [Compound 55] fall in the same range of pIC50: 6.00 to 7.00 for the first, 6.00 to 7.00 for the second.

`Cn1cc(-c2ccc3nnn(Cc4ccc5ncsc5n4)c3n2)cn1` [Compound 142] and `OCCn1cc(-c2ccc3nnn(Cc4ccc5ncsc5c4)c3n2)cn1` [Compound 73] fall in the same range of pIC50: 6.00 to 7.00 for the first, 6.00 to 7.00 for the second.

First: Cn1cc(-c2cnc3nnn(Cc4ccc5ncc(CN6CCOCC6)n5c4)c3n2)cn1 [Compound 320]
Second: CC(C)OCc1cnc2ccc(Cn3nnc4ncc(-c5cnn(C)c5)nc43)cn12 [Compound 323]
The pIC50 of the first is lower: 6.00 to 7.00 for the first, 7.00 to 9.00 for the second. The second is the more potent here.

`COc1cncc(Nc2cnc3nnn(Cc4ccc5ncccc5c4)c3n2)c1` [Compound 156] and `CNC(=O)c1cncc(Nc2cnc3nnn(Cc4ccc5ncccc5c4)c3n2)c1` [Compound 192] fall in the same range of pIC50: 7.00 to 9.00 for the first, 7.00 to 9.00 for the second.

`COCCn1cc(-c2cnc3nnn(Cc4cc5cnccc5s4)c3n2)cn1` [Compound 23] and `OCCn1cc(-c2cnc3nnn(Cc4cc5cccnc5s4)c3n2)cn1` [Compound 5] fall in the same range of pIC50: 6.00 to 7.00 for the first, 6.00 to 7.00 for the second.

`c1cnc2[nH]cc(Cn3nnc4ccc(-c5cnn(C6CCNCC6)c5)nc43)c2c1` [Compound 116] and `CN1CCC(n2cc(-c3ccc4nnn(Cc5ccc6ncccc6c5)c4n3)cn2)CC1` [Compound 101] fall in the same range of pIC50: 6.00 to 7.00 for the first, 6.00 to 7.00 for the second.

`c1nn(C2CCNCC2)cc1-c1cnc2nnn(Cc3cc4[nH]ncc4s3)c2n1` [Compound 17] and `c1nn(C2COC2)cc1-c1cnc2nnn(Cc3cc4[nH]ncc4s3)c2n1` [Compound 296] fall in the same range of pIC50: 6.00 to 7.00 for the first, 6.00 to 7.00 for the second.

`CC(=O)Nc1ccc(-c2ccc3nnn(Cc4c[nH]c5ncccc45)c3n2)cn1` [Compound 115] and `CNC(=O)c1ccc(-c2ccc3nnn(Cc4ccc5ncccc5c4)c3n2)cn1` [Compound 83] fall in the same range of pIC50: 7.00 to 9.00 for the first, 7.00 to 9.00 for the second.

Compared with `CCn1cc(-c2ccc3nnn(Cc4n[nH]c5ncccc45)c3n2)cn1` [Compound 137], `OCCn1cc(-c2ccc3nnn(Cc4n[nH]c5ncccc45)c3n2)cn1` [Compound 138] is lower in pIC50: 7.00 to 9.00 for the first, 6.00 to 7.00 for the second. The first is the more potent here.

First: COCCOc1ccc(-c2ccc3nnn(Cc4ccc5ncccc5c4)c3n2)cc1 [Compound 97]
Second: COCCOc1ccc(-c2ccc3nnn(Cc4ccc5ncccc5c4)c3n2)cn1 [Compound 99]
The pIC50 of the first is higher: 7.00 to 9.00 for the first, 6.00 to 7.00 for the second.

`CC(c1ccc2ncccc2c1)n1nnc2ccc(-c3cnn(CCO)c3)nc21` (racemic) [Compound 332] and `OCCn1cc(-c2ccc3nnn(Cc4ccc5ncccc5c4)c3n2)cn1` [Compound 61] fall in the same range of pIC50: 7.00 to 9.00 for the first, 7.00 to 9.00 for the second.

First: FC(F)(F)Cn1cc(-c2ccc3nnn(Cc4ccc5ncnn5c4)c3n2)cn1 [Compound 121]
Second: OCCn1cc(-c2ccc3nnn(Cc4ccc5nccn5c4)c3n2)cn1 [Compound 134]
The pIC50 of the first is lower: 6.00 to 7.00 for the first, 7.00 to 9.00 for the second. The second is the more potent here.

`CC(c1ccc2ncsc2c1)n1nnc2ncc(-c3cnn(CCO)c3)nc21` (stereo not shown) [Compound 20] and `Cc1cnc2ccc(Cn3nnc4ncc(-c5cnn(CCO)c5)nc43)cn12` [Compound 305] fall in the same range of pIC50: 7.00 to 9.00 for the first, 7.00 to 9.00 for the second.

`Cc1cccc(Oc2cnc3nnn(Cc4ccc5ncccc5c4)c3n2)n1` [Compound 255] and `Nc1cccc(Oc2cnc3nnn(Cc4ccc5ncccc5c4)c3n2)n1` [Compound 259] fall in the same range of pIC50: 7.00 to 9.00 for the first, 7.00 to 9.00 for the second.

`COc1ccc(-c2cnc3nnn(Cc4ccc5nccn5c4)c3n2)cn1` [Compound 276] and `c1cn2cc(Cn3nnc4ncc(-c5cnn(C6CCNCC6)c5)nc43)ccc2n1` [Compound 46] fall in the same range of pIC50: 7.00 to 9.00 for the first, 7.00 to 9.00 for the second.

First: OCc1ccc(-c2ccc3nnn(Cc4ccc5ncccc5c4)c3n2)s1 [Compound 104]
Second: Cc1ccc(-c2ccc3nnn(Cc4ccc5ncccc5c4)c3n2)cn1 [Compound 79]
The pIC50 of the first is higher: 7.00 to 9.00 for the first, 6.00 to 7.00 for the second. The first is the more potent here.

Compared with `CCn1ncc2sc(Cn3nnc4ncc(-c5cnn(CCO)c5)nc43)cc21` [Compound 38], `O=Cc1cnn2ccc(Cn3nnc4ncc(-c5cnn(CCO)c5)nc43)cc12` [Compound 312, 5-((6-(1-(2-Hydroxyethyl)-1H-pyrazol-4-yl)-1H-[1,2,3]triazolo[4,5-b]pyrazin-1-yl)methyl)pyrazolo[1,5-a]pyridine-3-carbaldehyde] is higher in pIC50: 6.00 to 7.00 for the first, 7.00 to 9.00 for the second. The second is the more potent here.

`COCCNc1ccc(-c2ccc3nnn(Cc4ccc5ncccc5c4)c3n2)cn1` [Compound 82] and `CS(=O)(=O)Nc1cccc(-c2ccc3nnn(Cc4ccc5ncccc5c4)c3n2)c1` [Compound 85] fall in the same range of pIC50: 7.00 to 9.00 for the first, 7.00 to 9.00 for the second.

`FC(F)(F)c1ccnc(Nc2cnc3nnn(Cc4ccc5ncccc5c4)c3n2)c1` [Compound 220] and `N#Cc1ccnc(Nc2cnc3nnn(Cc4ccc5ncccc5c4)c3n2)c1` [Compound 223] fall in the same range of pIC50: 7.00 to 9.00 for the first, 7.00 to 9.00 for the second.

`Cc1cccnc1Nc1cnc2nnn(Cc3ccc4ncccc4c3)c2n1` [Compound 188] and `COc1cccnc1Nc1cnc2nnn(Cc3ccc4ncccc4c3)c2n1` [Compound 213] fall in the same range of pIC50: 7.00 to 9.00 for the first, 7.00 to 9.00 for the second.

`COCCOc1cccc(Nc2cnc3nnn(Cc4ccc5ncccc5c4)c3n2)n1` [Compound 227] and `COCCOc1ccnc(Nc2cnc3nnn(Cc4ccc5ncccc5c4)c3n2)c1` [Compound 185] fall in the same range of pIC50: 7.00 to 9.00 for the first, 7.00 to 9.00 for the second.

`c1cnc2ccc(Cn3nnc4ncc(Nc5ccnc(O[C@H]6CCOC6)c5)nc43)cc2c1` [Compound 217] and `COc1cc(Nc2cnc3nnn(Cc4ccc5ncccc5c4)c3n2)ccn1` [Compound 195] fall in the same range of pIC50: 7.00 to 9.00 for the first, 7.00 to 9.00 for the second.

First: CNC(=O)c1ccnc(Nc2cnc3nnn(Cc4ccc5ncccc5c4)c3n2)c1 [Compound 174]
Second: Cc1cc(Nc2cnc3nnn(Cc4ccc5ncccc5c4)c3n2)ccn1 [Compound 163]
The pIC50 of the first is lower: 6.00 to 7.00 for the first, 7.00 to 9.00 for the second.

`Cn1ccc(Nc2cnc3nnn(Cc4ccc5ncccc5c4)c3n2)n1` [Compound 152, N-(1-methyl-1H-pyrazol-3-yl)-1-(quinolin-6-ylmethyl)-1H-[1,2,3]triazolo-[4,5-b]pyrazin-6-amine] and `Cn1ccc(Nc2ccc3nnn(Cc4ccc5ncccc5c4)c3n2)n1` [Compound 189] fall in the same range of pIC50: 7.00 to 9.00 for the first, 7.00 to 9.00 for the second.

First: c1cnc2ccc(Cn3nnc4ncc(Nc5ccsc5)nc43)cc2c1 [Compound 161]
Second: COCCOc1ncccc1Nc1cnc2nnn(Cc3ccc4ncccc4c3)c2n1 [Compound 216]
The pIC50 of the first is higher: 7.00 to 9.00 for the first, 6.00 to 7.00 for the second. The first is the more potent here.

First: CC(C)n1cc(-c2ccc3nnn(Cc4ccc5ncccc5c4)c3n2)cn1 [Compound 144]
Second: OC1CCCC1n1cc(-c2ccc3nnn(Cc4ccc5ncccc5c4)c3n2)cn1 (stereo not shown) [Compound 119]
The pIC50 of the first is higher: 7.00 to 9.00 for the first, 6.00 to 7.00 for the second.

Compared with `CC1N=CC(c2cnc3nnn(Cc4cc5cccnc5s4)c3n2)=N1` (stereo not shown) [Compound 2], `CN(c1ccnc(C#N)c1)c1cnc2nnn(Cc3ccc4ncccc4c3)c2n1` [Compound 239] is higher in pIC50: 6.00 to 7.00 for the first, 7.00 to 9.00 for the second. The second is the more potent here.

`c1cnc2ccc(Cn3nnc4ncc(Nc5cncc(N6CCOCC6)c5)nc43)cc2c1` [Compound 193] and `CC(c1c[nH]c2ncccc12)n1nnc2ccc(-c3cnn(CCO)c3)nc21` (stereo not shown) [Compound 113] fall in the same range of pIC50: 7.00 to 9.00 for the first, 7.00 to 9.00 for the second.

From US11896592B2, “Certain triazolopyridines and triazolopyrazines, compositions thereof and methods of use therefor” (Hutchison Medipharma Limited, priority 2009, dated 2024)
